Test results: patent US20240182867A1, “CHEMICAL REPROGRAMMING OF HUMAN SOMATIC CELLS INTO PLURIPOTENT CELLS” (Peking University, priority 2021, published 2024)

Columns and labels:
[1] = test system: human somatic cells; assay: hCiPSC colonies at the end of reprogramming after withdrawing individual chemicals from stage I or II; assay type: cell-based; conditions: factor removed
Description: Cells were maintained at 37° C. with 21% 02 and 5% CO2. The induction medium was changed every 3-4 days. HEFs were seeded at a density of 1-1.5×10^4 cells per well of a 12-well plate in 15%. FBS-DMEM medium. Change the medium into stage I induction medium on the next day. For stage I induction, single layer epithelial-like cells would emerge at day 4-6 and approach 80%-100% confluence at day 8-12, then change the medium into stage II induction medium. For stage II induction, multi-layered colonies appeared after 8-12 days treatment and these cell colonies would continually grow larger. After totally 16-20 days' stage II treatment, change the medium into stage III condition. For stage III induction, 8-12 days treatment of stage III medium is required and then change the medium into stage IV condition. For stage IV induction, VPA (500 μM) was included in the first 4 days. Primary hCiPSC colonies would emerge after 6-8 days' treatment. At the end of stage IV, immunofluorescent staining of co-expression of OCT4 and NANOG was used to confirm the generation of primary hCiPSC colonies. Primary hCiPSC colony number was calculated as the number of the compact OCT4 positive colonies. Reprogramming efficiency was calculated as the number of primary hCiPSC colonies divided by the number of input HEFs.
In several experiments, to testing the reprogramming efficiency after removing each small molecules, the indicated small molecules were removed from the cocktails. The concentration of the small molecules used to regulate the same pathway or targets were indicated as follow: GSK3 inhibitors (CHIR99021: 3-15 μM; TD114-2: 0.5-2 μM; CHIR98014: 1-3 μM; GSK3βi XV: 0.05-0.2 μM); RA pathway agonists (TTNPB: 0.5-10 μM; Ch55: 1-5 μM; AM580: 0.1-1 μM); Rock inhibitors (TZV: 2-10 μM; Y27632: 2-15 μM; Fasudil: 2-10 μM; HA1100: 2-10 μM); TGFβ inhibitors (A8301: 0.1-5 μM; SB431542: 2-50 μM; LY364947: 0.5 μM; LY21: 0.5 μM; 616452: 10 μM).
In several experiments, to testing the reprogramming efficiency after regulate each small molecules, the indicated small molecules were removed from the cocktails. The concentration of the small molecules used to targeting the same pathway or targets were indicated as follow: GSK3 inhibitors (CHIR99021: 3-15 μM; TD114-2: 0.5-2 μM; CHIR98014: 1-3 μM; GSK3βi XV: 0.05-0.2 μM); TGFβ inhibitors (A8301: 0.2-5 μM; SB431542: 2-50 μM; 616452: 10 μM); RA pathway agonists (TTNPB: 0.2-10 μM; Ch55: 1-10 μM; AM580: 0.1-1 μM); Rock inhibitors (Y27632: 2-15 μM; Fasudil: 2-10 μM; HA1100: 2-10 μM; TZV: 2-10 μM); Smoothened agonists (SAG: 0.2-2 μM; Purmorphamine: 0.5-2 μM; Hg-Ag1.5: 0.5-1 μM; Human shh: 20-200 μM); histone demethylation inhibitors (Tranylcypromine: 2-50 μM; GSK2879: 0.02-2 μM; LSD-C76: 0.2-5 μM; S2101: 0.5-5 μM; LSD-2D: 0.2-5 μM; RN-1: 0.2-5 μM); DNMT inhibitors (5-azaC: 2-15 μM; Decitabine: 0.5-10 μM; RG108: 0.5-10 μM); JNK inhibitors (JNK-in-8: 0.2-2 μM; JNK-in-5: 0.5-1 μM; JNK-in-7: 0.2-2 μM; JNK-in-12: 0.2-0.5 μM); CBP/p300 bromodomain inhibitor (SGC-CBP30: 0.5-2 μM; I-CBP112: 0.5-5 μM; GNE272: 0.5-5μM; GNE409:0.5-5μM); Menin-MLL interaction inhibitor (VTP50469: 0.5-2μM; MI3454: 0.5-2μM; WDR5-IN-4: 0.5-2μM).

[2] = test system: DNA CpG methylation; assay: DNA methylation levels after withdrawing individual chemicals from stage II; assay type: cell-based, human
Excerpt: In several experiments, to testing the reprogramming efficiency after regulate each small molecules, the indicated small molecules were removed from the cocktails. […]
To perform alignments of bisulfite-treated reads correctly, the Bismark Bisulfite Mapper pipeline was followed. […] Sequence reads were similarly transformed and mapped to prepared genomes using Bowtie2 with parameters set by Bismark. […] In this way, the number of reads were obtained that supported methylation and the number of reads covering every CpG site, non-CpG sites were not considered in later analysis.
To identify the sites showing evidence of methylation, binomial test was performed to each site on these counts to test whether the methylation counts are beyond bisulfite non-conversion events. […] Methylation level for each CpG site passed the test was defined as the fraction of reads supporting methylation out of reads that cover the site (mCpG/CpG). […] The mean CpG methylation level of each sample was calculated as the fraction of all reads supporting CpG methylation out of reads that cover CpG site (all mCpG / all CpG).

[3] = test system: other human kinases; conditions: cited from earlier work
[4] = test system: cellular retinoic acid binding protein (CRABP); conditions: cited from earlier work

SMILES: Nc1ncn([C@@H]2O[C@H](CO)[C@@H](O)[C@H]2O)c(=O)n1 [5-Azacytidine]
- generation of hCiPSCs [1]: greatly impaired
- development of a hypo-methylated state [2]: required

SMILES: CN(C)CCOc1ccc(-c2nc(-c3ccc4c(c3)CCC4=NO)c(-c3ccncc3)[nH]2)cc1 [SB590885, 5-[2-[4-[2-(Dimethylamino)ethoxy]phenyl]-5-(4-pyridinyl)-1H-imidazol-4-yl]-2,3-dihydro-1H-inden-1-one oxime]
- inhibition to other human kinases [3]: no inhibition

SMILES: CC(C)(C)c1cc(C(=O)/C=C/c2ccc(C(=O)O)cc2)cc(C(C)(C)C)c1 [Ch 55, 4-[(1E)-3-[3,5-bis(1,1-Dimethylethyl)phenyl]-3-oxo-1-propenyl]benzoic acid]
- affinity for CRABP [4]: low affinity
